Values joined by “and” are separate entries in the source; they are usually repeats but may differ in a detail not shown here. Equal entries are not always repeated. Where two headings read alike, the source gives them in different places.
How the values were obtained:
[1] = test system: common lambsquarters (CHEAL, Chenopodium album L.); experiment: Greenhouse postemergence herbicidal effect; type: in vivo; conditions: for Obs % visual injury: CHEAL
[2] = test system: kochia (KCHSC, Kochia scoparia); experiment: Greenhouse postemergence herbicidal effect; type: in vivo; conditions: for Obs % visual injury: KCHSC
Method in brief: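 Plants at the second or third true leaf stage received overhead spray at 187 L/ha, with the pyridine carboxylate (plus cloquintocet-mexyl safener) alone or with ALS herbicides in 1.25% v/v crop oil. Rates are in g ae/ha or g ai/ha. Visual injury versus solvent-blank controls was scored 0–100% after 20-22 d in the greenhouse.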

spring barley (HORVS) = type: in vivo, Hordeum vulgare
Method in brief: (§1)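 Herbicide mixtures, dosed as g ae/ha for the pyridine carboxylate and g ai/ha for the ALS inhibitor, are applied postemergence with cloquintocet-mexyl safener. Control plants receive solvent blank. Percent injury is assessed by eye 20–22 d later.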

[3] = test system: pineapple weed (MATMT, Matricaria discoidea); experiment: Greenhouse postemergence herbicidal effect; type: in vivo; conditions: for Obs % visual injury: MATMT
Method in brief: as §1

[4] = test system: winter rape (BRSNW, Brassica napus); experiment: Greenhouse postemergence herbicidal effect; type: in vivo; conditions: for Obs % visual injury: BRSNW
Method in brief: as §1

[5] = test system: wild buckwheat (POLCO, Polygonum convolvulus); experiment: Greenhouse postemergence herbicidal effect; type: in vivo; conditions: for Obs % visual injury: POLCO
Method in brief: as §1

[6] = test system: pigweed (AMARE, Amaranthus retroflexus); experiment: Greenhouse postemergence herbicidal effect; type: in vivo; conditions: for Obs % visual injury: AMARE
Method in brief: as §1

[7] = test system: wild chamomile (MATCH, Matricaria chamomilla); experiment: Greenhouse postemergence herbicidal effect; type: in vivo; conditions: for Obs % visual injury: MATCH
Method in brief: as §1

[8] = test system: Canadian thistle (CIRAR, Cirsium arvense); experiment: Greenhouse postemergence herbicidal effect; type: in vivo
Method in brief: as §1

spring wheat (TRZAS) = type: in vivo, Triticum aestivum; conditions: for Obs % visual injury: TRZAS
Method in brief: as §1

[9] = Compound B (without cloquintocet-mexyl safener) 10 g/ha

C#CCOC(=O)c1nc(-c2ccc3cc[nH]c3c2F)c(F)c(N)c1Cl [Compound B, propargyl 4-amino-3-chloro-5-fluoro-6-(7-fluoro-1H-indol-6-yl)pyridine-2-carboxylate]
% visual injury, Obs ([1]; 10 g/ha): 93% | Obs % visual injury ([1]; Compound B 5 g/ha): 96% | Obs % visual injury ([1]; Compound B 10 g/ha): 94% and 96% | pest or weed control at 10 g/ha ([2]; Bassia scoparia, post-emergence, 10 g/ha, read-out: % visual injury, Obs): 73% | Obs % visual injury ([2]; Compound B 5 g/ha): 60% | Obs % visual injury ([2]; Compound B 10 g/ha): 65% | Obs % visual injury [2, 9]: 96% | Obs % visual injury (spring barley (HORVS); HORVS, Compound B 10 g/ha): 0% | Obs % visual injury ([3]; Compound B 10 g/ha): 20% | Obs % visual injury ([4]; Compound B 10 g/ha): 93% | % visual injury, Obs ([5]; 10 g/ha): 90% | Obs % visual injury ([5]; Compound B 5 g/ha): 88% | Obs % visual injury ([5]; Compound B 10 g/ha): 97% and 87% | % visual injury, Obs ([6]; 10 g/ha): 73% | Obs % visual injury ([6]; Compound B 5 g/ha): 93% | Obs % visual injury ([6]; Compound B 10 g/ha): 84% and 94% | Obs % visual injury ([7]; Compound B 10 g/ha): 20% and 18% | Obs % visual injury ([8]; CIRAR, Compound B 5 g/ha): 50% | pest or weed control at 10 g/ha ([8]; Cirsium arvense, post-emergence, 10 g/ha, read-out: % visual injury, Obs): 55% | Obs % visual injury (spring wheat (TRZAS); Compound B 5 g/ha): 13% | Obs % visual injury (spring wheat (TRZAS); [9]): 28%

COc1ncc(F)c2nc(S(=O)(=O)Nc3c(F)cccc3F)nn12 [Florasulam, florasulam]
% visual injury Obs ([1]; Florasulam 3.75 g/ha): 0% | % visual injury Obs ([2]; Florasulam 3.75 g/ha): 70% | % visual injury ([2]; Florasulam 5 g/ha): 95% | % visual injury Obs (spring barley (HORVS); Florasulam 3.75 g/ha): 0% | % visual injury (spring barley (HORVS); Florasulam 5 g/ha): 0% | % visual injury ([3]; Florasulam 5 g/ha): 95% | Obs % visual injury ([3]; Florasulam 5 g/ha): 65% | Obs % visual injury ([4]; Florasulam 5 g/ha): 35% | % visual injury Obs ([4]; Florasulam 3.75 g/ha): 95% | % visual injury ([4]; Florasulam 5 g/ha): 97% | % visual injury Obs ([5]; Florasulam 3.75 g/ha): 90% | % visual injury ([5]; Florasulam 5 g/ha): 87% | % visual injury Obs ([6]; Florasulam 3.75 g/ha): 100% | % visual injury Obs ([7]; Florasulam 3.75 g/ha): 85% | % visual injury ([7]; Florasulam 5 g/ha): 85% | Obs % visual injury ([7]; Florasulam 5 g/ha): 20% | % visual injury Obs ([8]; Florasulam 3.75 g/ha): 68% | % visual injury ([8]; Florasulam 5 g/ha): 75% | % visual injury Obs (spring wheat (TRZAS); Florasulam 3.75 g/ha): 0% | % visual injury (spring wheat (TRZAS); Florasulam 5 g/ha): 0%
